In data set [1] the test system is varicella zoster virus. Kind of data set: Informal trials: topical ivermectin lotion in patients with herpes zoster (shingles). The data set is classed as in vivo, human. The source says:
For treating herpes zoster, preferably the surface of the affected area of the skin is gently scratched prior to rubbing the composition containing the macrocyclic lactone compound on the area. Gentle scratching abrades the stratumcorium, which allows better penetration of the macrocyclic lactone compound into the skin. The stratum corneum is the outermost layer of the epidermis, composed of large, polyhedral, plate-like envelopes filled with keratin, which is made up of dead cells that have migrated up from the stratum granulosum. As these dead cells slough off on the surface, they are continuously replaced by new cells from the stratum germinativum. Alternatively, the composition can be dispensed on the affected area, and then scratched into the area. Scratching with cleaned finger nails or a sterilized scraping tool, for example small sharp curette or a needle point, can be used.
(§1) The composition can be applied topically to the affected area one or more times a day, typically one to two times a day, when a herpes simplex episode occurs or during the course of shingles or chicken box. When the pain is severe, the composition can be applied more frequently to help alleviate the symptoms. Moreover, the composition can also be integrated into or applied on medical dressing, dermal patch, or lint free wipes, which can be applied to the affected area as needed, to provide a more extended exposure to the medication.
For herpes zoster, at the early onset the patient develops a patch of linear area of paresthesia, and hyperesthesia (burning, stinging, and pain). At this time, the composition containing ivermectin should be topically applied promptly and scratched into the skin. Concurrently, an oral antiviral medication can be used promptly.
(§2) Operating with informed consent of individuals, individuals were treated with the topical composition and the method of the present invention for treating herpes virus infection, more particularly herpes simplex and herpes zoster or shingles, as described in Examples 3 to 8.

The subject of data set [2] is herpes simplex virus. The data set is described as follows: Informal trials: topical ivermectin lotion in patients with herpes simplex. In kind it is in vivo, human.
From the text: The composition of the present invention described above is applied to the affected area of patients having herpes simplex, herpes zoster, or chicken-pox. Preferably, the lotion, cream, gel, or ointment can be applied on the affected area with gentle rubbing to help penetration of the macrocyclic lactone compound into the skin. Moreover, when lotion, cream, or hydrogel is used, preferably the affected area is dampened by water first, then a drop of lotion, cream, or hydrogel is rubbed on the affected area by finger(s). […] Moreover, if blisters are already formed at the affected area, at the time of applying the topical composition the blisters can be broken using a needle, then the composition is rubbed in the lesion.
as §1
The most impressive results are seen with early recognition and treatment. […] In medicine, a prodrome is an early symptom (or set of symptoms) that might indicate the start of a disease before specific symptoms occur. Prodromes may be non-specific symptoms or, in some instances, may clearly indicate a particular disease. In herpes simplex there is a prodrome consisting of a change in sensation, typically slight numbness or a faint tingling sensation with vague swelling or induration.
as §2

Data set [3] in a line: Side effects and tolerability observed in treated patients. The data set is classed as in vivo, human. To be noted: Example 5: person, high dose. The procedure:
Operating with informed consent of individuals, individuals were treated with the topical composition and the method of the present invention for treating herpes virus infection, more particularly herpes simplex and herpes zoster or shingles, as described in Examples 3 to 8. In the above described informal trials, no adverse side effects or contra-indications were observed among the patients. The patients had no complaints of skin irritation, sensitivity or discomfort originating from the treatment.

In data set [4] the test system is herpes simplex virus. As to conditions: cited from earlier work.
[5] abbreviates: topical composition, ivermectin concentration as low as 0.075%.

For the molecule `CC(=O)OCC(CCn1cnc2cnc(N)nc21)COC(C)=O` [Famvir®, famciclovir], the “Response of severe pain with burning and tingling to prior therapy” value in data set [1] (Example 6: person, high dose) was “had not responded”. For `CC(C)[C@H](N)C(=O)OCCOCn1cnc2c(=O)[nH]c(N)nc21` [Valtrex®, valacyclovir], the “Satisfaction with prior therapy” value in data set [2] (Example 5: person, high dose) is listed as “without total satisfaction”. In addition, the “Side effects of prior therapy” value in data set [3] is “cardiac irregularities, especially bigeminy and trigeminy”. Take `Nc1nc2c(ncn2COCCO)c(=O)[nH]1` [Zovirax®, acyclovir]: in data set [2] (Example 3: patient history, oral), the “Benefit of prior therapy, orally” value is on record as “with benefit”. The “Benefit of prior therapy, topically” value in data set [2] (Example 3: patient history, topical) is reported as “without benefit”. Turning to `O=c1[nH]c(=O)n([C@H]2C[C@H](O)[C@@H](CO)O2)cc1I` [idoxuridine], in data set [4] (topical, reported in a study), the Pain duration entry was “reduced pain duration” and the “Time to loss of crust” value was “decreased time to loss of crust”.

With `Nc1nc2c(ncn2CCC(CO)CO)c(=O)[nH]1` [penciclovir], in data set [4] (cream applied early and late in course of HSV infection (Hamuy et al. 1998)), the “Duration of lesions, pain, and viral shedding” value was “decreased the duration of lesions, pain, and viral shedding”.

ivermectin: the “Effectiveness in treating herpes zoster” value in data set [1] (setting [5]) is reported as “effective”. Besides, the “Effect of combined systematic and topical treatments on severity of herpes zoster” value in data set [1] (topical ivermectin composition with concurrent oral antiviral medication) is reported as “synergistic effect in decreasing the severity”. Also, in data set [2] (setting [5]), the “Effectiveness in treating herpes simplex” value is reported as “effective”.

The values are drawn from US8901091B2, “Method of treating herpes virus infection using macrocyclic lactone compound” (Galderma S.A., priority 2010, dated 2014).
